Test results reported in ChEMBL document CHEMBL3046038, “Antifeedant effects and chemical composition of essential oils from different populations of Lavandula luisieri L” (Biochem Syst Ecol, 2006).

Assays:
[1] = system: Leptinotarsa decemlineata; experiment: Antifeedant activity against adult Leptinotarsa decemlineata fed on compound treated potato foliage by choice feeding assay; format: functional, organism-based
[2] = system: Spodoptera littoralis; experiment: Antifeedant activity against […] Spodoptera littoralis fed on compound treated artificial diet by choice feeding assay; format: functional, organism-based
[3] = system: Spodoptera littoralis; experiment: Antifeedant activity against Spodoptera littoralis fed on compound treated artificial diet assessed as larval weight gain by choice feeding assay relative to control; format: functional
[4] = system: Spodoptera littoralis; experiment: Antifeedant activity against Spodoptera littoralis fed on compound treated artificial diet assessed as food ingested by choice feeding assay relative to control; format: functional
[5] = system: Myzus persicae; experiment: Antifeedant activity against apterous adult Myzus persicae (green peach aphid) fed on compound treated bell pepper assessed as settling on leaf by choice feeding assay (reference value: 52 to 70%); format: functional

Row | EC50 [1] [microg/cm2] | EC50 [2] [microg/cm2] | SMILES | Activity [3] [%] | Activity [4] [%] | Activity [5] [%]
1 | > 50 | > 50 | CC12CCC(CC1)C(C)(C)O2 [EUCALYPTOL] | 96 | 95 | 37
2 | > 50 | > 50 | C=C1C(=O)C(C)=C(C)C1(C)C | 87 | 88 | 48
3 | > 50 | > 50 | CC12CCC(C1)C(C)(C)C2=O (stereo not given) [FENCHONE] | 100 | 91 | 30
4 | > 50 | > 50 | CC12CCC(CC1=O)C2(C)C (stereo not given) [CAMPHOR] | 97 | 83 | 40
